Experimental data: patent US20250145665A1, “MACROCYCLIC PEPTIDES USEFUL AS MODULATORS OF TNF ALPHA” (Bristol-Myers Squibb Company, priority 2023, published 2025)
Read-outs that look alike come from different tables or passages of the source. Starred links: 1 amine or outer side, 2 acyl side, 3 side chain; linkers in the order of their positions; H or OH if unused. Positions of bridges follow the written chain, without caps; N, C: chain ends. Non-standard residues stand in square brackets, D forms with d. Residues, ends and D or L forms follow the SMILES beside them. *: point of attachment. Bip(4'-NH) = O=C([C@H](Cc1ccc(-c2ccc(N[*:3])cc2)cc1)N[*:1])[*:2]; dArg(ω-(3-HO-benzyl)) = N=C(NCCC[C@@H](N)C(=O)O)NCc1cccc(O)c1; Indazole3carbonyl(1-CH2COOH) = O=C(O)Cn1nc(C(=O)*)c2ccccc21; Bip(4'-COOH) = N[C@@H](Cc1ccc(-c2ccc(C(=O)O)cc2)cc1)C(=O)O; Bip(4'-NHAc) = CC(=O)Nc1ccc(-c2ccc(C[C@H](N)C(=O)O)cc2)cc1; X7 = N=C(NCCC[C@@H](N[*:1])C(=O)[*:2])NCc1ccc2occc2c1; Ala(imidazol-2-yl) = N[C@@H](Cc1ncc[nH]1)C(=O)O; Phe(4-CF3) = N[C@@H](Cc1ccc(C(F)(F)F)cc1)C(=O)O; Ala(morpholin-4-yl) = N[C@@H](CN1CCOCC1)C(=O)O; Benzoyl(3-OCH2COOH) = O=C(O)COc1cccc(C(=O)*)c1; Bip = N[C@@H](Cc1ccc(-c2ccccc2)cc1)C(=O)O; Ala(2-furyl) = N[C@@H](Cc1ccco1)C(=O)O; Val(3-OH) = CC(C)(O)[C@H](N)C(=O)O; 2Pal = N[C@@H](Cc1ccccn1)C(=O)O; Cha = N[C@@H](CC1CCCCC1)C(=O)O; Tle = CC(C)(C)[C@H](N)C(=O)O; Aze = O=C(O)[C@@H]1CCN1; Sar = CNCC(=O)O

Biological target: TNFα (Homo sapiens, UniProt P01375)
Test: TNF-Induced HEK-Blue Assay
Format: cell-based
[1] = HEK-Blue-CD40L cells, NF-kB-driven secreted alkaline phosphatase reporter, TNFα 0.5 ng/ml, 18 h, read-out: TNF induced HEK-Blue assay IC50 value

Chain of TNFα (P01375 77-233 limits assumed): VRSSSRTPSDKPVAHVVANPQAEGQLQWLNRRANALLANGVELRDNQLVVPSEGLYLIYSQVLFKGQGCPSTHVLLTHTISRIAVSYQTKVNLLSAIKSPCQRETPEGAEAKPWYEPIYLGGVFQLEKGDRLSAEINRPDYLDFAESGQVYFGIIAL

Row | Structure (SMILES) | IC50 [1] | IC50
1 | CC(C)C[C@@H]1NC(=O)[C@H](Cc2ncc[nH]2)NC(=O)[C@H](C(C)C)NC(=O)[C@@H]2CCCN2C(=O)[C@H](C(C)C)NC(=O)[C@@H](CCCNC(=N)NCc2cccc(O)c2)NC(=O)[C@H](CC(=O)O)NC(=O)[C@H](Cc2ccccn2)NC(=O)CN(C)C(=O)[C@H](Cc2ccc(-c3ccc(NC(=O)c4nn(CC(=O)O)c5ccccc45)cc3)cc2)NC(=O)[C@H](Cc2ccc(-c3ccc(C(=O)O)cc3)cc2)NC(=O)[C@H](CC2CCCCC2)NC(=O)CSC[C@@H](C(=O)NCC(N)=O)NC1=O [Example 551] ({CH2CO}-[Cha][Bip(4'-COOH)][Bip(4'-NH)](Indazole3carbonyl(1-CH2COOH))[Sar][2Pal]D[dArg(ω-(3-HO-benzyl))]VPV[Ala(imidazol-2-yl)]LCG-NH2; thioether N-13) |  | < 50 nM
2 | CC(C)C[C@@H]1NC(=O)[C@H](Cc2ccc(C(F)(F)F)cc2)NC(=O)[C@H](C(C)C)NC(=O)[C@@H]2CCCN2C(=O)[C@H](C(C)C)NC(=O)[C@@H](CCCNC(=N)N)NC(=O)[C@H](CC(=O)O)NC(=O)[C@H](Cc2ccc(O)cc2)NC(=O)CN(C)C(=O)[C@H](Cc2ccc(-c3ccccc3)cc2)NC(=O)[C@H](Cc2ccc(-c3ccccc3)cc2)NC(=O)[C@H](CN2CCOCC2)NC(=O)CSC[C@@H](C(=O)NCC(N)=O)NC1=O [Example 157] ({CH2CO}-[Ala(morpholin-4-yl)][Bip][Bip][Sar]YD[dR]VPV[Phe(4-CF3)]LCG-NH2; thioether N-13) | 200 to 2000 nM | 
3 | CC(C)C[C@@H]1NC(=O)[C@H](CCCNC(=N)N)NC(=O)[C@H](C(C)C)NC(=O)[C@@H]2CCCN2C(=O)[C@H](C(C)C)NC(=O)[C@@H](CCCNC(=N)NCc2ccc3occc3c2)NC(=O)[C@H](CC(=O)O)NC(=O)[C@@H]2CCCN2C(=O)CN(C)C(=O)[C@H](Cc2ccc(-c3ccc(NC(=O)c4nn(CC(=O)O)c5ccccc45)cc3)cc2)NC(=O)[C@H](Cc2ccc(-c3ccccc3)cc2)NC(=O)[C@H](CN2CCOCC2)NC(=O)CSC[C@@H](C(=O)NCC(N)=O)NC1=O [Example 449] ({CH2CO}-[Ala(morpholin-4-yl)][Bip][Bip(4'-NH)](Indazole3carbonyl(1-CH2COOH))[Sar]PD[X7]VPVRLCG-NH2; thioether N-13) |  | < 50 nM
4 | CC(=O)Nc1ccc(-c2ccc(C[C@@H]3NC(=O)[C@H](Cc4ccc(-c5ccccc5)cc4)NC(=O)[C@H](CC4CCCCC4)NC(=O)CSC[C@@H](C(=O)NCC(N)=O)NC(=O)[C@H](CC(C)C)NC(=O)[C@H](Cc4ccco4)NC(=O)[C@H](C(C)C)NC(=O)[C@@H]4CCCN4C(=O)[C@H](C(C)C)NC(=O)[C@@H](CCCNC(=N)N)NC(=O)[C@H](CC(=O)O)NC(=O)[C@@H]4CCCN4C(=O)CN(C)C3=O)cc2)cc1 [Example 288] ({CH2CO}-[Cha][Bip][Bip(4'-NHAc)][Sar]PD[dR]VPV[Ala(2-furyl)]LCG-NH2; thioether N-13) | 200 to 2000 nM | 

More lines, main results first:

Row | IC50 [1] | Structure (SMILES) | IC50
5 | < 50 nM | CC[C@H](C)[C@@H]1NC(=O)[C@@H]2CCN2C(=O)[C@H]([C@@H](C)CC)NC(=O)[C@@H](CCCNC(=N)N)NC(=O)[C@H](CC(=O)O)NC(=O)[C@H](Cc2ccc(O)cc2)NC(=O)CN(C)C(=O)[C@H](Cc2ccc(-c3ccc(NC(=O)c4cccc(OCC(=O)O)c4)cc3)cc2)NC(=O)[C@H](Cc2ccc(-c3ccccc3)cc2)NC(=O)[C@H](C(C)(C)C)NC(=O)CSC[C@@H](C(=O)NCC(N)=O)NC(=O)[C@H](CC(C)C)NC(=O)[C@H](Cc2ccc(O)cc2)NC1=O [Example 378] ({CH2CO}-[Tle][Bip][Bip(4'-NH)](Benzoyl(3-OCH2COOH))[Sar]YD[dR]I[Aze]IYLCG-NH2; thioether N-13) | 
6 | < 50 nM | CC(=O)Nc1ccc(-c2ccc(C[C@@H]3NC(=O)[C@H](Cc4ccc(-c5ccccc5)cc4)NC(=O)[C@H](C(C)(C)O)NC(=O)CSC[C@@H](C(=O)NCC(N)=O)NC(=O)[C@H](CC(C)C)NC(=O)[C@H](Cc4ccc(O)cc4)NC(=O)[C@H](C(C)C)NC(=O)[C@@H]4CCCN4C(=O)[C@H](Cc4ccc(O)cc4)NC(=O)[C@@H](CCCNC(=N)N)NC(=O)[C@H](CC(=O)O)NC(=O)[C@H](Cc4ccccn4)NC(=O)CN(C)C3=O)cc2)cc1 [Example 178] ({CH2CO}-[Val(3-OH)][Bip][Bip(4'-NHAc)][Sar][2Pal]D[dR]YPVYLCG-NH2; thioether N-13) | 
